These results are taken from patent publication US8088433B2, “Mononuclearly filled microcapsules” (Symrise AG, priority 2001, dated 2012).

For data set [1] the following is noted: cited from earlier work; for logPo/w / logKo/w: n-octanol/water distribution coefficient; for Log Ko/w: components of the Model flavor, Table 9; for logKo/w: log10[co/cw], grouping of flavor substances by difficulty of encapsulation.
Data set [2] is described as follows: flavor retention of Model-flavor components in alginate capsules, short continuous vs long batch gelling (ether extraction, HRGC/MS). The format is physicochemical. To be noted: wet alginate capsules, 5% calcium chloride, relative to Model-flavor solution theoretically encapsulated; for Flavor Retention, Short Gel Time (continuous): dwell time 1 minute; for Flavor Retention, Long Gel Time (Batch): dwell time 2 hours. How it is done:
50 g sodium alginate were dissolved in 195 g demineralized water using a high speed kneading mixer of the type Ultra-Turrax. 250 g Model-flavor were dissolved in 750 g neutral oil. The Model flavor was comprised of flavor components, which cover a large spectrum of water/oil solubility as indicated by logKo/w-values, see the following Table 9.
The two solutions (alginate, flavor) were conveyed to a vibrating two-stream nozzle head with an inner diameter of 150 μm and an outer diameter of 500 μm. The flow rates were adjusted for the flavor solution to 500 g per hour and for the shell solution to 1000 g per hour, the vibration frequency was adjusted to 200 Hz.
For the preferred short continuous gelling process the formed discrete droplets fell into a pipe reactor, which was filled with 5% calcium chloride, and were so transported, that the dwell time was 1 minute.
The results of the 1 minute capsule production (corresponding to 8.3 g encapsulated flavor solution) were then dissolved in 200 ml 1% aqueous […] solution. The mixture was then extracted for 4 hours in a perforator with diethyl ether. The diethyl ether extract was analyzed using HRGC/MS. The results were evaluated based on the surface of the GC/MS peaks for the components per gram of encapsulated aroma solution.
For the batch gelled process the formed discrete droplets fell into a 5% calcium chloride containing reactor with a dwell time of 2 hours. […] The same analytical protocol was carried out as for the short gel time process.
10 g Model-flavor solution were dispersed in 200 ml 1% aqueous sodium citrate solution. The mixture was extracted in a perforator for 4 hours with diethyl ether and evaluated as described above.
The flavor retention for the respective flavor components during the short continuous gelling process and the long gel batch process were calculated on the basis of the amount of the Model-flavor solution which originally flowed through the nozzle system and theoretically was encapsulated, the results are presented in Table 10.

Data set [3] in a line: flavor retention of Model-flavor components in alginate capsules, drying with silicon dioxide vs fluidized bed drying. The format is physicochemical. To be noted: for Convective Drying: % Retention: 200 g wet capsules dried in fluidized bed dryer at 30° C., 100 m^3 per hour air flow, shell water content 62%; for Drying "water adsorbing" Substances: % Retention: 200 g wet capsules mixed 10 minutes with 100 g silicon dioxide, shell water content 45%.

For the compound `CC=O` [Acetaldehyde], in data set [1], the logPo/w is reported as −0.16.

Regarding `CCCCCCCC(=O)OCC` [Ethylcaprylate], the “Log Ko/w” value in data set [1] is given as 3.9. Moreover, in data set [2], the “Flavor Retention, Short Gel Time (continuous)” value (shortened to “Flavor Retention … (continuous)”) came out at 90% and the “Flavor Retention, Long Gel Time (Batch)” value worked out at 90%. In data set [3], the “Convective Drying: % Retention” value is recorded as 65% and the “Drying "water adsorbing" Substances: % Retention” value is recorded as 0%.

For the compound `O=Cc1ccccc1` [benzaldehyde], in data set [2], the “Flavor Retention … (continuous)” value is reported as 82% and the “Flavor Retention, Long Gel Time (Batch)” value is 11%. In data set [3], the “Convective Drying: % Retention” value is 52% and the “Drying "water adsorbing" Substances: % Retention” value was found to be 80%.

Take `C=C1CCC2CC1C2(C)C` (stereo not drawn) [beta-pinene]: the logKo/w in data set [1] is listed as 4.37.

In the case of `C=C(C)C1CC=C(C)C(=O)C1` (stereo not shown) [carvone], the logKo/w in data set [1] is 2.23.

Consider `CC(=O)C(C)=O` [diacetyl (butanedione), butanedione], for which the logKo/w in data set [1] is 1.33.

Take `CCCC(=O)OCC` [ethyl butyrate]: in data set [1], the logKo/w was 1.77 and the logPo/w was 1.73.

As to `CCOC(=O)C(C)O` (stereo not shown) [ethyl lactate], in data set [1], the logKo/w is reported as 0.88.

Take `CCOC(=O)CC` [ethyl propionate]: in data set [1], the “Log Ko/w” value is reported as 1.24 and the logKo/w was 1.24. Besides, in data set [2], the “Flavor Retention … (continuous)” value is 61% and the “Flavor Retention, Long Gel Time (Batch)” value came to 0%. Also, in data set [3], the “Convective Drying: % Retention” value is given as 4% and the “Drying "water adsorbing" Substances: % Retention” value is 50%.

With `CCCCCC(=O)OCC` [ethyl-caproate], the logKo/w in data set [1] was 2.83.

As to `CCOC(C)=O` [ethylacetate], the logKo/w in data set [1] is recorded as 0.75.

In the case of `CCCCCCC1CCC(=O)O1` (stereo not shown) [gamma-decalactone], the logKo/w in data set [1] was 2.42.

With `CC(=O)OCCC(C)C` [isoamyl acetate], in data set [1], the “Log Ko/w” value is 2.12 and the logPo/w is 2.12. In data set [2], the “Flavor Retention … (continuous)” value was determined as 80% and the “Flavor Retention, Long Gel Time (Batch)” value came out at 18.5%. Besides, in data set [3], the “Convective Drying: % Retention” value is listed as 60% and the “Drying "water adsorbing" Substances: % Retention” value turned out to be 95%.

Consider `CC(C)CCO` [isoamyl alcohol], for which, in data set [1], the logKo/w is given as 1.28 and the logPo/w is 1.22.

With `C=CC(C)(O)CCC=C(C)C` (stereo not shown) [linalool], in data set [1], the logKo/w is 3.28.
